PMC11413853, “Discovery of VU6007496: Challenges in the Development of an M1 Positive Allosteric Modulator Backup Candidate” (ACS Chemical Neuroscience, 2024)
Where two headings read alike, the source gives them in different places.

Legend:
[1] = Rat brain homogenate binding; assay type: in vitro ADME; conditions: brain homogenate (1:3 brain:DPBS, w/w), pH 7.4, read-out: fu,brain (r)
Description: Plasma protein binding and Brain homogenate binding: Determination of fraction unbound (f u) in plasma was conducted in vitro via equilibrium dialysis using HTDialysis (HTD) membrane plates. The top half of the plate was filled with 100 uL of Dubelco’s Phosphate Buffered Saline, pH 7.4 (DPBS). Compounds were diluted into plasma from each species (5 µM final concentration), which was aliquoted in triplicate to the ‘bottom half’ of the prepared HTD plate wells. The HTD plate was sealed and incubated for 6 hours at 37 °C. Following incubation, each well (both top and bottom halves) were transferred (20 µL) to the corresponding wells of a 96-shallow-well (V-bottom) plate. The daughter plates were then matrix-matched (DPBS side wells received equal volume of plasma, and plasma side wells received equal volume of DPBS), and extraction solution (120 µL; acetonitrile containing 50 nM carbamazepine as IS) was added to all wells of both daughter plates to precipitate protein and extract test article. The plates were then sealed and centrifuged (3500 rcf) for 10 minutes at ambient temperature. […]
The unbound fraction (f u) was calculated following the equation below, and mean values for each species were calculated from 3 replicates.
A similar approach was used to determine the degree of brain homogenate binding, which employed the same methodology and procedure with the following modifications: 1) a final compound concentration of 1 μM was used, 2) naïve rat brains were homogenized in DPBS (1:3 composition of brain: DPBS, w/w) using a Mini-Bead Beater™ machine in order to obtain brain homogenate, which was then treated in the same manner as the plasma samples in the previously described plasma protein binding assay. Fraction unbound for both plasma and brain samples was determined using Equation 4. […]
The diluted fraction unbound (fu2) in brain was calculated in the same manner by using brain homogenate rather than plasma. Undiluted fraction unbound for the brain was calculated using […]

[2] = target: T1, rat M1 (Rattus norvegicus, UniProt P08482); experiment: Calcium mobilization assay, rat M1 (agonist and PAM modes); assay type: cell-based; conditions: for rM1 PAM AChmax (%) / rM1 Agonist AChmax (%): % ACh max
T1 construct: expressed in transfected cells; host or cells: CHO (stated in general for all functional cell-based assays)
T1 sequence (P08482 1-460): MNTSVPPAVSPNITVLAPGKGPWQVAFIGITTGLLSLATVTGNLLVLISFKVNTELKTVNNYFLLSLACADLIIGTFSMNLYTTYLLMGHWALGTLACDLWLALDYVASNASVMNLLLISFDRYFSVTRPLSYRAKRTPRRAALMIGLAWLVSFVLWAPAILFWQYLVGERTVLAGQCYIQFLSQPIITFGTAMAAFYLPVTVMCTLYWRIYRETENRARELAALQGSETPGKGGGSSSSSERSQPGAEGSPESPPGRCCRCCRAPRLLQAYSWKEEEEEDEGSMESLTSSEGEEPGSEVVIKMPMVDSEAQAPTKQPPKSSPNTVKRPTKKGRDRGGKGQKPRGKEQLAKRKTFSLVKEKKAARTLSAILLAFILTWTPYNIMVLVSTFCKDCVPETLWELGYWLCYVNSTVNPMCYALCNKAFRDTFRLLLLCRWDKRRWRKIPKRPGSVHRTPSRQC

[3] = test system: hM2-5; experiment: Muscarinic selectivity, human M2-5; assay type: cell-based
Description: Procedures for Biological Experiments
Calcium mobilization assays:
All functional cell-based assays were performed in stable Chinese Hamster Ovary (CHO) cell lines constitutively expressing human M5 or human M1 receptors. For full muscarinic selectivity, CHO cells expressing human M3, human M2 plus Gqi5 or human M4 plus Gqi5 were used. Cells were plated at 15,000 cells per 20 µL per well in black 384-well, TC-treated, clear-bottomed plates (Greiner) in Ham’s F12 medium supplemented with 10% FBS and 20 mM HEPES. Cells were incubated overnight at 37 °C under 5% CO2. The following day, the medium was removed and replaced with 1.2 µM Fluo-4 AM (Invitrogen) in assay buffer (Hank’s Balanced Salt Solution supplemented with 20 mM HEPES and 2.5 mM Probenecid, pH 7.4) and the cells were incubated for 50 minutes at 37 °C under 5% CO2. Dye was then removed and replaced with 20 µL of fresh assay buffer. Test compounds at a 10 mM concentration in DMSO were serially diluted in DMSO (either 1:3 or 1:5 dilution) to create a 10-point concentration series. The DMSO solutions were then diluted in assay buffer resulting in compound solutions at 2-times the final assay concentration with the highest assay concentration of 30 µM. The compound plate, cell plate, and plates containing EC20 and EC80 acetylcholine concentrations were placed in a Hamamatsu FDSS 6000 or 7000 kinetic imaging plate reader equipped to measure Ex480/Em540 fluorescence. Data were collected at 1 frame per second. After 2 seconds of collecting baseline fluorescence, 20 µL of the compound solutions were added to the cell plate. This was followed by the addition of an EC20 concentration of acetylcholine at 142 seconds. […] The fluorescence signal was collected for a total of 300 seconds. […] Data were imported and analyzed in Dotmatics Informatics software. by normalizing all data in the individual kinetic traces to the initial fluorescence read. The magnitude of each agonist addition was then determined and normalized to the average maximum response. […] The IC50 determined using the EC80 of acetylcholine is the value reported. […]

[4] = PAM mode, read-out: rM1 PAM EC50
[5] = agonist mode, read-out: rM1 Agonist EC50

Row | EC50 ([2]; agonist mode, read-out: rat M1 agonism EC50) [µM] | SMILES | fraction unbound at 6 h, 1 µM [1] | rM1 PAM AChmax (%) ([2]; PAM mode) | EC50 [2, 4] [µM] | rM1 Agonist AChmax (%) ([2]; agonist mode) | EC50 [2, 5] [µM] | EC50 [3] [µM] | activity on human M2–5 [3]
1 | – | Cn1ccc(-c2ccc(Cc3cc(C(=O)NC4CCOCC4)nc4ccsc34)cc2)n1 [compound 12] | 0.011 | 90 | 0.063 | 32 | 4.35 | > 30 | –
2 | 3.1 | Cn1ccc2nc(C(=O)NC3CCOCC3)cc(Cc3ccc(-c4cc[nH]n4)cc3)c21 [compound 24] | 0.025 | 89 | 0.056 | 48 | – | – | inactive
3 | – | Cn1ccc(-c2ccc(Cc3cc(C(=O)NC4CCOCC4)nc4ccn(C)c34)cc2)n1 [compound 11] | 0.038 | 91 | 0.094 | 36 | 7.34 | > 30 | –
